Tests used:
human cell lines = test: Anti-cancer activity against human cell lines; type: cell-based
Bovine brain tubulin = target: T1, Bovine brain tubulin (Bos taurus, UniProt P81947+Q6B856); test: Tubulin turbidity assay (GTP-induced tubulin polymerization); type: biochemical
T1 construct: purchased Sigma, St. Louis, Mo; host or cells: bovine brain (tissue-purified)
Protocol: Bovine brain tubulin (Sigma, St. Louis, Mo.) was used in standard turbidity assays to test the effects of compounds COBRA-1 and COBRA-2 as well as control compounds on GTP-induced tubulin polymerization. Compounds (in 1% DMSO) were added to tubulin (1 mg/ml, 0.1M MES, 1 mM EGTA, 0.5 mM MgCl2, 0.1 mM EDTA, 2.5M glycerol, 1 μg/ml leupeptin, 1 μg/ml aprotinin, pH 6.5) followed by stimulation of polymerization with 1 mM GTP at 2 minutes and 1 mM taxol at 30 minutes. Optical density was measured using a Becton Dickinson UV spectrophotometer (350 nm) using a thermostated cuvette holder to keep the reaction at 37° C. Readings obtained from the spectro-photometer were standardized by subtracting the background absorbance of the compound in water from the sample reading following drug addition.
To test the latitude of the structure at the opposite end of the molecule from the long chain (head region), three new COBRA compounds were synthesized according to the schemes shown below: COBRA-3, COBRA-4, and COBRA-5. Each of these compounds was then tested for tubulin depolymerization activity, using the tubidity assay described in the Examples above.
Each of these compounds was assayed for effects on GTP-dependent tubulin polymerization, using the methods described above.

T1 sequence (P81947 whole entry): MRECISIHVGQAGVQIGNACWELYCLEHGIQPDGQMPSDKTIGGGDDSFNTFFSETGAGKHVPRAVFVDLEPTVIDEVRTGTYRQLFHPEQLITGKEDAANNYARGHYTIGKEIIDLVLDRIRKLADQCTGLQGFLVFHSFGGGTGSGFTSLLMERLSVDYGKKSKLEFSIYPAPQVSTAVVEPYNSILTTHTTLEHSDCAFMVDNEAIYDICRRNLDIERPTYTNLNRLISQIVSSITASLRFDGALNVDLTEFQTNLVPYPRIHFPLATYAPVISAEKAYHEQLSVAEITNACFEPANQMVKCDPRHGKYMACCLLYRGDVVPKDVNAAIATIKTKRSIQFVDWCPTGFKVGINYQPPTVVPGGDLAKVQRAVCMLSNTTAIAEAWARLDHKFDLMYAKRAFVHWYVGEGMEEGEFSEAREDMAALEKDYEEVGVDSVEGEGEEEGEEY
T1 sequence (Q6B856 whole entry): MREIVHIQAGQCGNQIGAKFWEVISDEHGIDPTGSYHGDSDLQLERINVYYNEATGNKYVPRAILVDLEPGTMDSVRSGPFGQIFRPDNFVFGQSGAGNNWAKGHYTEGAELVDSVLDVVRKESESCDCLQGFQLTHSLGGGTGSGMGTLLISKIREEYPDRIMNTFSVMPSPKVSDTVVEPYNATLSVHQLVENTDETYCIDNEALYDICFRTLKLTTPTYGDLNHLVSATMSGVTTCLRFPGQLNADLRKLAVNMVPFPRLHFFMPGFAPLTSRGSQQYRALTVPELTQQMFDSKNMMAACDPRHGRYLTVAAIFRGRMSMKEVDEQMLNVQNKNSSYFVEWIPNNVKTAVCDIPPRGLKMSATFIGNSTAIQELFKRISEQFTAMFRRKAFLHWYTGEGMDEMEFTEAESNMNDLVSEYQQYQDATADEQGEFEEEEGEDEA

CCCCCCCCCCCCSCC(NC(C)=O)C(=O)CCl (stereo not drawn) [COBRA-5, N-Ac-S-dodecyl-Cys Chloromethyl Ketone]
anti-cancer activity against human cell lines (human cell lines): very potent anti-cancer activity
effect on GTP-dependent tubulin polymerization (turbidity) (Bovine brain tubulin; 1 mg/ml tubulin, 1 mM GTP, 37° C., OD 350 nm): caused partial depolymerization of tubulin and completely inhibited its polymerization in the presence of GTP
IC90 (Bovine brain tubulin; stated in the tubulin polymerization paragraph, assay not named): 10 µM
